{"source": "patent US20250263404A1", "about": "“AMINOPYRIDINES AS ACTIVATORS OF PI3 KINASE” (UCL Business Ltd, priority 2021, published 2025)", "key": {"[1]": {"target": "T1, ATM (Homo sapiens, UniProt Q13315)", "T1 construct": "made in house", "assay": "ATM kinase assay (Phos-tag gel)", "format": "biochemical", "conditions": "200 μM 1938", "procedure": "133 protein kinases and 7 lipid kinases were counterscreened, with […] used at 1 μM, using the Adapta, Lantha and Z-LYTE assays (SelectScreen Kinase Profiling Service; Thermofisher—experimental details of these assays can be found here: https://www.thermofisher.com/uk/en/home/industrial/pharma-biopharma/drug-discovery-development/target-and-lead-identification-and-validation/kinasebiology/kinase-activity-assays.html. The tree representation in KinMap generated courtesy of Cell Signaling Technology, Inc. (www.cellsignal.com). mTORC1 (mTOR/RAPTOR/LST8) protein complex and ATM kinase and substrates were produced as previously described (Anandapadamanaban, M. et al. Science (New York, NY 366, 203-210 (2019); Baretic, D. et al. Sci Adv 3, e1700933 (2017). Screening of 1938 was conducted using SuperSep Phos-Tag 50 μmol/l 100×100×6.6 mm 17-well (192-18001/199-18011) gels. For ATM assays, 100 nM ATM was incubated for 30 min at 30° C. with 5 μM GST-p53 and 1 mM ATP, in the absence or presence of 200 μM 1938 in ATM Kinase Buffer (50 mM HEPES pH 7.5, 100 mM NaCl, 10% glycerol, 2 mM […], 5 mM MgCl2). […] Gels were then stained using InstantBlue™ Coomassie stain, and then quantified using BioRad Image Lab Software. […]"}, "[2]": {"target": "T2, PI3Kβ (Homo sapiens, UniProt P42338)", "T2 construct": "Full-length p110β/p85α and p110δ/p85α were cloned and expressed in a similar manner; Strep-tag followed by TEV protease site (N, cleaved yes); made in house; host or cells: Spodoptera frugiperda Sf9 (plasmids OP832 and OP809)", "assay": "ADP-Glo in vitro lipid kinase assay, PI3Kβ", "format": "biochemical", "procedure": "(§1) The effect of 1938 on the in vitro lipid kinase activity of p85α in complex with p110α, p110β or p110δ (further referred to as PI3Kα, PI3Kβ and PI3Kδ) was tested. As a positive control, a bis-phosphorylated phosphopeptide (a PDGF-receptor-derived peptide phosphorylated on Tyr-740 and Tyr-751, hereafter referred to as pY peptide) was used to mimic engagement of the p85α SH2 domains with tyrosine-phosphorylated peptides in membrane-bound receptors and adaptor proteins, known to activate the PI3Kα complex.\n(§2) Kinase reactions were performed with ADP-Glo kinase assay kit (Promega Corporation). The enzyme, substrate and compounds were diluted in reaction buffer (20 mM HEPES, 50 mM NaCl, 50 mM KCl, 3 mM MgCl2, 1 mM EGTA, 1 mM TCEP, pH 7.4). Final concentrations of PI3Kα and PI3Kδ used were 25 nM and 50 nM for PI3Kβ. […]\n(§3) For compound profiling, the reaction mixture contained 2 μl PI3K enzyme, 2 μl compound and/or pY and 2 μl of liposome substrate mixed with ATP. […] Luminescence was read using a Sense (Hidex) plate reader. […]\n(§4) For characterisation of the effects of 1938 on in vitro PI3K enzymology, all reactions were performed at room temperature with 384 white-polystyrene plates (Corning #3574). […] For enzyme kinetic calculations, data was expressed as velocity (pmol of ADP generated/sec). […]"}, "[3]": {"target": "T3, G106V mutant of p110α (Homo sapiens, UniProt P42336, G106V)", "T3 construct": "Full-length p110α was expressed in a complex with full-length p85α (for biochemistry and HDX-MS); 6xHis followed by TEV protease site (N); made in house; host or cells: Spodoptera frugiperda Sf9 (plasmid JB35)", "T3 sequence (P42336 whole entry G106V)": "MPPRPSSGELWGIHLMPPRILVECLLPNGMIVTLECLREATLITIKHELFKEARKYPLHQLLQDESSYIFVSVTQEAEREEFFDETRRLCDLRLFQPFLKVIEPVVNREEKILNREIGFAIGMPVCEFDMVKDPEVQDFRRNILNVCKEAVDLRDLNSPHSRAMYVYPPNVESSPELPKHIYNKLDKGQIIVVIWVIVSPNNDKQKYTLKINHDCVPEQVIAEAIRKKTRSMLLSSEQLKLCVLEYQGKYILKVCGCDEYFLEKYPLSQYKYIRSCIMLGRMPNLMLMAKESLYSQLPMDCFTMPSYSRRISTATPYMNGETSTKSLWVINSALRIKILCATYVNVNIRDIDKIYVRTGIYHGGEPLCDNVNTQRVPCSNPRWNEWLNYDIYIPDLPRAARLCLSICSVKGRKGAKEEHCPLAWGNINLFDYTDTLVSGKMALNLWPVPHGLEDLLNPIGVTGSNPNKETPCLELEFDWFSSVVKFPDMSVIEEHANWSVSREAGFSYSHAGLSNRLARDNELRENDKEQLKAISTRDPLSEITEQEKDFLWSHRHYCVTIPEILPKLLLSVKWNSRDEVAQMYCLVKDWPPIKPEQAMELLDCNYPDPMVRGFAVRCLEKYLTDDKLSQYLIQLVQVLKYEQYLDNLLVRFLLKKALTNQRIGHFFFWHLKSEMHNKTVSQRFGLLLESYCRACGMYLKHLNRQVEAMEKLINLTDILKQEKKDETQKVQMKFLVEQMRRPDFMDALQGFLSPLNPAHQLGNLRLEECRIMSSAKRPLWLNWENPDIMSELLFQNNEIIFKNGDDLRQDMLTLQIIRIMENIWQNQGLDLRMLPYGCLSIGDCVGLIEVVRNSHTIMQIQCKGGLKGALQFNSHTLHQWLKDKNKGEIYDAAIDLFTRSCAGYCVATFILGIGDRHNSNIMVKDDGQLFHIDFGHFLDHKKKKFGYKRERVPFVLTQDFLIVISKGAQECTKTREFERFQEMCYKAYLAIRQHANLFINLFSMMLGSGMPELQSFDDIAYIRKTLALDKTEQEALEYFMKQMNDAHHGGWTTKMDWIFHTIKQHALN", "T3 sequence (P27986 whole entry partner)": "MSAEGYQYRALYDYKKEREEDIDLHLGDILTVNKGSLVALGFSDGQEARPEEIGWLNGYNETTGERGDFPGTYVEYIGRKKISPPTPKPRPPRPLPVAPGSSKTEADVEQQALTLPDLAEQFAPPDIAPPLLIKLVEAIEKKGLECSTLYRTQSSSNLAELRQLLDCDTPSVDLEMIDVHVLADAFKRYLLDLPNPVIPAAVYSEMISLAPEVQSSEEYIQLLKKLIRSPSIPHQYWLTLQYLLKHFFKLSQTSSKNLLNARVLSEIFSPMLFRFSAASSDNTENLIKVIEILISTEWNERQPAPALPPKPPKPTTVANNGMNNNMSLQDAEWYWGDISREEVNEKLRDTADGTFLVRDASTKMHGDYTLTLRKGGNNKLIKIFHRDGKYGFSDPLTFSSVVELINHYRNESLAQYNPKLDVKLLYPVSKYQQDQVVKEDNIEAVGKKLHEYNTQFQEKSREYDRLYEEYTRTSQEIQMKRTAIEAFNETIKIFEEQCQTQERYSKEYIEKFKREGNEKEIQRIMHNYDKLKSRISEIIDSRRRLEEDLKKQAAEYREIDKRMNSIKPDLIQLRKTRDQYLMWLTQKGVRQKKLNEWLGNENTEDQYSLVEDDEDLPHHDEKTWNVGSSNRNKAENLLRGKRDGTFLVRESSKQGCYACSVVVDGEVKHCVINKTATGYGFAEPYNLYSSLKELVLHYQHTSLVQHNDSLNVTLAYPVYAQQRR", "assay": "ADP-Glo kinase assay, oncogenic mutant G106V", "format": "biochemical", "conditions": "compared with pY", "procedure": "Co-stimulation of 1938 with pY led to an additive activatory effect for G106V, but not for the N345K and E545K mutants (FIG. 1f/FIG. 22f).\nKinase reactions were performed with ADP-Glo kinase assay kit (Promega Corporation). The enzyme, substrate and compounds were diluted in reaction buffer (20 mM HEPES, 50 mM NaCl, 50 mM KCl, 3 mM MgCl2, 1 mM EGTA, 1 mM TCEP, pH 7.4). Final concentrations of PI3Kα and PI3Kδ used were 25 nM and 50 nM for PI3Kβ. Liposomes (5% brain PI(4,5)P2, 20% brain phosphatidylserine, 45% brain phosphatidylethanolamine, 15% brain phosphatidylcholine, 10% cholesterol, 5% sphingomyelin (Avanti Polar Lipids)) were used at a final concentration of 1 mg/ml. The pY sequence is ESDGG(pY)[…](pY)[…].\nFor characterisation of the effects of 1938 on in vitro PI3K enzymology, all reactions were performed at room temperature with 384 white-polystyrene plates (Corning #3574). The final DMSO concentration in the assay was between 0.5%-1.8%. The reaction mixture contained 2 μl PI3K enzyme, 2 μl compound and/or pY and 2 μl of liposome substrate mixed with ATP. ATP was used at a final concentration of 200 μM, unless otherwise stated. The enzyme and compounds were pre-incubated for 10 min prior to addition of substrate. […] For enzyme kinetic calculations, data was expressed as velocity (pmol of ADP generated/sec). […]"}, "[4]": {"tested_on": "isolated rat hearts", "assay": "Langendorff ex vivo perfused rat heart model of IRI", "conditions": "5 μM"}, "[5]": {"target": "T4, PI3Kδ (Homo sapiens, UniProt O00329)", "T4 construct": "Full-length p110β/p85α and p110δ/p85α were cloned and expressed in a similar manner; Strep-tag followed by TEV protease site (N, cleaved yes); made in house; host or cells: Spodoptera frugiperda Sf9 (plasmids OP833 and OP809)", "assay": "ADP-Glo in vitro lipid kinase assay, PI3Kδ", "format": "biochemical", "procedure": "as §1, §2, §3, §4"}}, "data": [{"smiles": "CCN1CCN(c2ccc(Nc3cc(Nc4cccc5c4N(C(C)=O)CC5)ccn3)cc2)CC1", "note": "[Example 1938]", "values": [{"measurement": "activity of ATM", "setting": "[1]", "value": "did not affect"}, {"measurement": "effect on in vitro lipid kinase activity of PI3Kβ", "setting": "[2]", "value": "not PI3Kβ"}, {"measurement": "activation of G106V mutant", "setting": "[3]", "value": "levels comparable with stimulation with pY"}, {"measurement": "pAKT S473 in perfused rat hearts", "setting": "[4]", "value": "increase in generation of pAKTS473"}, {"measurement": "tissue protection from IRI", "setting": "[4]; administration during first 15 min of reperfusion", "value": "substantial tissue protection from IRI"}, {"measurement": "effect on in vitro lipid kinase activity of PI3Kδ", "setting": "[5]", "value": "not PI3Kβ or PI3Kδ"}]}]}
